Test results: patent US9572786B2, “Use of capsiate or dihydrocapsidate” (Catholic University Industry Academy Cooperation Foundation, priority 2007, dated 2017)

Experiments:
HUVEC [1] = assay: Cell cycle analysis by FACS; type: cell-based, human; conditions: 1, 5, 10, 25 μM, 10 ng/mL VEGF, 20 hours
Method: In order to identify the mechanism of the inhibition of proliferation of endothelial cells confirmed in Example 9, fluorescence-activated cell sorting (FACS) analysis was carried out on the cells at different phases of cell cycle.
3×10^5 HUVEC were placed on a 60 mm plate and cultured for 24 hours. After washing twice with M199 medium (Invitrogen, USA), the cells were cultured in M199 medium containing 1% FBS for 6 hours. After adding capsiate or dihydrocapsiate at different concentrations (1 μM, 5 μM, 10 μM, 25 μM), followed by pre-culturing for 30 minutes, 10 ng/mL VEGF was added and the cells were cultured for 20 hours. Then, the cells were fixed with ethanol cooled in ice. The fixed cells were dehydrated in PBS containing 2% FBS and 0.1% Tween 20 at 4° C. for 30 minutes. After centrifuge, the cells were lysed in the same buffer solution. After treating with RNase (37° C., 1 hr), followed by staining with propidium iodide, analysis was carried out using a FACS analyzer (FACScan DB PharMingen flow cytometer).

HUVEC [2] = assay: Chemotactic mobility, Transwell assay; type: cell-based, human; conditions: 1, 5, 10, 25 μM; 4 hours
Method: Transwell assay (Corning Costar, USA) was carried out in order to investigate the effect of capsiate or dihydrocapsiate on chemotactic mobility of HUVEC [Lee O H et al., 1999, Biochem. Biophys. Res. Commun. 264; 743-750].
In brief, the bottom side of a filter was coated with 10 μg of gelatin and M199 medium containing VEGF and 1% FBS was added to the lower well. HUVEC were prepared by treating with trypsin and diluting in M199 medium containing 1% FBS to a concentration of 1×10^6 cells/mL. Capsiate or dihydrocapsiate at different concentrations (1 μM, 5 μM, 10 μM, 25 μM) were pre-treated at room temperature for 30 minutes. The cells in […] of medium were added to the upper well and cultured at 37° C. for 4 hours. After fixation, followed by staining with hematoxylin and eosin, the cells remaining on the top surface of the filter without moving were removed. The cells that migrated to the bottom side of the filter were observed and counted using an optical microscope (×200).

VE-cadherin [3] = assay: VE-cadherin expression in the intercellular junction, immunofluorescence; type: cell-based, human; conditions: HUVEC; 5, 10, 25 μM pre-treatment; VEGF 50 ng/mL for 1 hour
Method: In order to identify if the change of permeability of endothelial cells is related with VE-cadherin, the level of VE-cadherin expression in the intercellular junction was investigated.
HUVEC were placed on a gelatin-coated cover slip at a concentration of 12×10^5 cells/well and cultured for 24 hours. After washing twice with M199 medium, the cells were cultured in M199 medium containing 1% for 6 hours. After treating with capsiate or dihydrocapsiate at different concentrations (5 μM, 10 μM, 25 μM) for 30 minutes, the cells were treated with VEGF (50 ng/mL) for 1 hour. The cells were fixed and made permeable by treating with 2% formaldehyde for 10 minutes, and washed 3 times with PBS. Subsequently, the cells were treated with 0.1% Triton X-100 and 2% bovine serum albumin (BSA)/PBS blocking solution for 30 minutes. After labeling with VE-cadherin at room temperature for 2 hours, followed by washing with PBS, the cells were labeled again with FITC-conjugated secondary antibody at room temperature for 1 hour and 30 minutes. The cover slip was mounted on SloFade (Molecular Probes) and observed under a fluorescence microscope (Carl Zeiss).

VE-cadherin [4] = assay: Tyrosine phosphorylation of VE-cadherin, Western blotting; type: cell-based, human; conditions: HUVEC; 5, 10, 25 μM; 50 ng/mL VEGF
Method: Because VEGF is known to induce tyrosine phosphorylation of VE-cadherin and thereby regulate permeability between endothelial cells by making the intercellular contact loose [Esser S. et al., 1998, J. Cell Sci., 111: 1853-1865], the inhibition effect on tyrosine phosphorylation of VE-cadherin was investigated.
3.5×10^5 HUVEC were placed on a 60 mm plate and cultured for 24 hours. After washing twice with M199 medium (Invitrogen, USA), the cells were cultured in M199 medium containing 1% FBS for 6 hours. After treating with capsiate or dihydrocapsiate at different concentrations (5 μM, 10 μM, 25 μM) for 30 minutes, followed by pre-culturing for 30 minutes, the cells were cultured for 6 hours after adding 50 ng/mL VEGF. Proteins were collected from the cells and, after quantitation, subjected to Western blotting using VE-cadherin antibody in order to identify the level of protein expression.

aortic ring = assay: Sprouting from the aortic ring; type: cell-based, Sprague Dawley rat; conditions: rat aortic ring in Matrigel; 6 days; evaluation 0 to 5 points
Method: The degree of sprouting from the aortic ring caused by treatment with VEGF was investigated as follows in order to identify the effect of capsiate or dihydrocapsiate on VEGF-induced angiogenesis.
The aortic ring was prepared from the artery of Sprague Dawley rat (6-8 weeks old). The aortic ring was placed on a 48-well plate coated with 120 μL of Matrigel and 50 μL of Matrigel was further added. Then, 200 μL of a medium (human endothelial serum-free medium, Invitrogen, USA) containing capsiate or dihydrocapsiate and VEGF or a medium containing only VEGF was added. 6 days later, the cells were fixed, stained using Diff-Quick and subjected to evaluation (0 to 5 points) in a double blinded manner.

CD31 = assay: Endothelial cell content in Matrigel plug, CD31 immunohistochemical staining; type: in vivo; conditions: C57/BL6 mouse Matrigel plug; 60 μg; 100 ng VEGF
Method: Immunohistochemical staining was carried out using CD31 in order to measure the endothelial cell content in the Matrigel plug.
The Matrigel plug was fixed using 2% formaldehyde and moisture was removed from the Matrigel using 15% sucrose and 30% sucrose based on the principle of osmosis. Then, the Matrigel plug was hardened at −70° C. The hardened Matrigel plug was sliced with a thickness of 8-12 μm, stained with CD31-antibody (PECAM-1 antibody, BD Biosciences, USA) and the level of expression by endothelial cells was observed under a microscope.

SMILES | number of endothelial cells in G1 arrest phase (HUVEC [1]) | VEGF-increased chemotactic mobility of HUVEC (HUVEC [2]) | cell adhesion ability of VE-cadherin in the intercellular junction (VE-cadherin [3]) | VEGF-induced phosphorylation of VE-cadherin (VE-cadherin [4]) | VEGF-promoted sprouting from the aortic ring (aortic ring) | level of CD31 expression in Matrigel plug (CD31)
COc1cc(COC(=O)CCCC/C=C/C(C)C)ccc1O [capsiate] | increase of the number of endothelial cells in G1 arrest phase | decreased in a concentration-dependent manner | recovered | decreased in a concentration-dependent manner | inhibited the sprouting in a concentration-dependent manner | decreased to the extent comparable to the control group
COc1cc(COC(=O)CCCCCCC(C)C)ccc1O [dihydrocapsiate] | increase of the number of endothelial cells in G1 arrest phase | decreased in a concentration-dependent manner | recovered | decreased in a concentration-dependent manner | inhibited the sprouting in a concentration-dependent manner | decreased to the extent comparable to the control group
